# Source: ChEMBL document CHEMBL1158862, “Insect Toxins from an Endophytic Fungus from Wintergreen” (J Nat Prod, 1997)
# Test: Toxicity in spruce budworm larvae assessed as mortality at 0.8 umol
# Format: organism-based
# Settings: choristoneura fumiferana, in vivo, read-out: Activity
smiles,measurement,value
CC(C)=CCCC(=O)c1cc2cc(O)ccc2o1,mortality,36%
